Experimental data taken from patent publication US20210317140A1, “Heterocyclic Compounds and Methods of Use” (MEDIVATION TECHNOLOGIES, INC, priority 2013, published 2021).

What was measured:
BTK = target: T1, BTK (Homo sapiens, UniProt Q06187); test: BTK kinase assay (HotSpot, 33P ATP); assay type: biochemical; settings: for BTK @ 0.01 μM (% Inh): 0.01 μM compound; for BTK @ 0.01 μM (% Inh) / BTK @ 0.1 μM (% Inh) / BTK @ 1 μM (% Inh): 10 μM ATP; for BTK @ 0.1 μM (% Inh): 0.1 μM compound; for BTK @ 1 μM (% Inh): 1 μM compound; for IC50: 10 dose IC50, 10 μM ATP
T1 construct: purchased Reaction Biology Corporation
T1 sequence (Q06187 whole entry): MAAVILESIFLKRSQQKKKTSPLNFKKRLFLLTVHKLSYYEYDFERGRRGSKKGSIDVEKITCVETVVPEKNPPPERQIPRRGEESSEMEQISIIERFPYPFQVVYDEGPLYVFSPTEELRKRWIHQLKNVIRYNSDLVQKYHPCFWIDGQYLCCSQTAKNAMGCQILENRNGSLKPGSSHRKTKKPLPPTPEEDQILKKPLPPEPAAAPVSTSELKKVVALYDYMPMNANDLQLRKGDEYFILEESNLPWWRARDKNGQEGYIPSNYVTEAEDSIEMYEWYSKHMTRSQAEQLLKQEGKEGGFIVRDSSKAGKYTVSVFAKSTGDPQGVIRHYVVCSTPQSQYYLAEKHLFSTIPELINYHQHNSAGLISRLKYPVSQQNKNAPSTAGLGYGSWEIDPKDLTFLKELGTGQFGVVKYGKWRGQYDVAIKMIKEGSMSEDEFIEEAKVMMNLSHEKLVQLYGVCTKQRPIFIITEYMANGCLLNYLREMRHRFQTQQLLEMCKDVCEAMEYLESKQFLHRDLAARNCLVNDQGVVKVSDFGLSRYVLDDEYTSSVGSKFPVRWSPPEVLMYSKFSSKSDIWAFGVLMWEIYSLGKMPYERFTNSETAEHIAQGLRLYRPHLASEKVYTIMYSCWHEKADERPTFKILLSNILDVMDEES
Procedure: (§1) Compounds of the invention were profiled in a 10 dose IC50 panel against BTK and PI3Kδ, both provided by Reaction Biology Corporation.
BTK assay: In vitro profiling protein kinases was performed using the “HotSpot” assay platform. Briefly, specific kinase/substrate pairs along with required cofactors were prepared in reaction buffer. Compounds were prepared as 10 mM stock solutions in DMSO. Compounds were delivered into the reaction, followed 15-20 minutes later by addition of a mixture of ATP (Sigma, St. Louis Mo.) and ^33P ATP (Perkin Elmer, Waltham Mass.) to a final concentration of 10 μM. […] IC50 values and curve fits were obtained using Prism (GraphPad Software). Buffer Conditions: 20 mM Hepes (pH 7.5), 10 mM MgCl2, 1 mM EGTA, 0.02% Brij35, 0.02 mg/mL BSA, 0.1 mM Na3VO4, 2 mM DTT, 1% DMSO.

PI3Kδ = target: T2, PI3Kδ (Homo sapiens, UniProt O00329); test: PI3Kδ kinase assay (HTRF, PIP3 detection); assay type: biochemical; settings: for PI3Kδ @ 0.01 μM (% Inh): 0.01 μM compound; for PI3Kδ @ 0.01 μM (% Inh) / PI3Kδ @ 0.1 μM (% Inh) / PI3Kδ @ 1 μM (% Inh): 10 μM ATP; for PI3Kδ @ 0.1 μM (% Inh): 0.1 μM compound; for PI3Kδ @ 1 μM (% Inh): 1 μM compound; for IC50: 10 dose IC50, 10 μM ATP
T2 construct: purchased Reaction Biology Corporation
T2 sequence (O00329 whole entry): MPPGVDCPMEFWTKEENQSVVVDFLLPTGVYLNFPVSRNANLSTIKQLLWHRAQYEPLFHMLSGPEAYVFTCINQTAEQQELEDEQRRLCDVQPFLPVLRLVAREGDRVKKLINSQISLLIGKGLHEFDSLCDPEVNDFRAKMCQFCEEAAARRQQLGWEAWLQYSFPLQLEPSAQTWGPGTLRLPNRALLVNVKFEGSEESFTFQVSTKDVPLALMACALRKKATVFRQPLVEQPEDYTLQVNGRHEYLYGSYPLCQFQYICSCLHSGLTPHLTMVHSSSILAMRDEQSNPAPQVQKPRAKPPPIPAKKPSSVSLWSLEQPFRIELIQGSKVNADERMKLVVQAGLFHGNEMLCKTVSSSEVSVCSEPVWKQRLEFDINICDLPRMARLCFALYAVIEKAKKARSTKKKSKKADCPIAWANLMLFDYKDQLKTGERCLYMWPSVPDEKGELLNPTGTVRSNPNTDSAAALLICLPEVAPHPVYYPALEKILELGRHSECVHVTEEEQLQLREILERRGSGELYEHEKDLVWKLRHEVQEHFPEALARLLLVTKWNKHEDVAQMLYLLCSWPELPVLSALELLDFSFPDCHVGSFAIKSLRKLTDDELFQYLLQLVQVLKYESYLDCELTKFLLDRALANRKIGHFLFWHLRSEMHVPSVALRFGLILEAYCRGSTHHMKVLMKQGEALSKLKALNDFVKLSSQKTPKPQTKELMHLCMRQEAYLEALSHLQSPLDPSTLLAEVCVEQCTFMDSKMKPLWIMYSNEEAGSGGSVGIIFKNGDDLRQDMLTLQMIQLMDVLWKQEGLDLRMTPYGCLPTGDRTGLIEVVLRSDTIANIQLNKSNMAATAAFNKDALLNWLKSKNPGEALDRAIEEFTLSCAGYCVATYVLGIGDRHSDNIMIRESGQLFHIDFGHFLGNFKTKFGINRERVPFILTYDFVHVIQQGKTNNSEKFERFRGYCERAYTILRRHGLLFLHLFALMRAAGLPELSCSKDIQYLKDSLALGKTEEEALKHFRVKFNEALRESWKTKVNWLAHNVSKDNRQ
T2 sequence (P27986 whole entry partner): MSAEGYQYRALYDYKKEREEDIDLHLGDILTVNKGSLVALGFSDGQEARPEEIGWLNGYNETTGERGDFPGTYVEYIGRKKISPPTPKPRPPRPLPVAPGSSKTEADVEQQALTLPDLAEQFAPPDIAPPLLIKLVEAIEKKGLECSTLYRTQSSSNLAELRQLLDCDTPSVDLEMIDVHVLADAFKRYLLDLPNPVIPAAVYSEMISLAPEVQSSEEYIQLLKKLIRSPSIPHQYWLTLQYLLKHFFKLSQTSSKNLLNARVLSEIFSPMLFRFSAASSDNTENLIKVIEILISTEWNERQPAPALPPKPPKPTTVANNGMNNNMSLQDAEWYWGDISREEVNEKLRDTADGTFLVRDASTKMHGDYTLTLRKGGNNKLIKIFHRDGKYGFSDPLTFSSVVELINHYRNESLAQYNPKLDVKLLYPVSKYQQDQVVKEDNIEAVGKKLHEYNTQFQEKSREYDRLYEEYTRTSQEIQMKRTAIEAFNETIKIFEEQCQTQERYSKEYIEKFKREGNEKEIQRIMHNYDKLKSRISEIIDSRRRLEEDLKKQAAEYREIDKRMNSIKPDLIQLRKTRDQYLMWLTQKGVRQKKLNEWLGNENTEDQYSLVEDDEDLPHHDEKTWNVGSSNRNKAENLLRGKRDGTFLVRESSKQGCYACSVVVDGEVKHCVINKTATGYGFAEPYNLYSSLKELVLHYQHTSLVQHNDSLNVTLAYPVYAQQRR
Description: as §1
PI3Kδ assay: The PIP3 product is detected by displacement of biotin-PIP3 from an energy transfer complex consisting of Europium labeled anti-GST monoclonal antibody, a GST-tagged pleckstrin homology (PH) domain, biotinylated PIP3 and Streptavidin-Allophycocyanin (APC). […] The PIP3 product formed by PI 3-Kinase(h) activity displaces biotin-PIP3 from the complex resulting in a loss of energy transfer and thus a decrease in signal. This is a 3-step reaction: First, the kinase reaction with PIP2 substrate is carried out in the presence of ATP (10 μM), and the reaction is quenched with stop Solution, and then finally detect by adding Detection Mixture followed by incubation (10 min). Reaction procedure: 1) Prepare substrate in freshly prepared Reaction Buffer. 2) Deliver kinase into the substrate solution and gently mix. 3) Deliver compounds in 100% DMSO (1 μM) into the kinase reaction mixture by Acoustic technology (Echo550; nanoliter range), incubate for 10 min at RT. 4) Deliver ATP into the reaction mixture to initiate the reaction. 5) Incubate for 30 min at 30° C. 6) Quench the reaction with Stop Solution. 7) Add Detection Mixture, and incubate for overnight. […] The emission ratio is converted into μM PIP3 production based on PIP3 standard curves. The nonlinear regression to obtain the standard curve and IC50 values are performed using Graphpad Prism software. Assay Buffer: HEPES 50 mM (pH7.0), NaN3 0.02%, BSA 0.01%, Orthovanadate 0.1 mM, 1% DMSO. Detection buffer: HEPES 10 mM (pH7.0), BSA 0.02%, KF 0.16 M, EDTA 4 mM. Substrate: 10 μM PIP2 substrate (PI(4,5)P2).

Structure (SMILES)	BTK @ 0.01 μM (% Inh) (BTK)	BTK @ 0.1 μM (% Inh) (BTK)	PI3Kδ @ 0.01 μM (% Inh) (PI3Kδ)	PI3Kδ @ 0.1 μM (% Inh) (PI3Kδ)	BTK @ 1 μM (% Inh) (BTK)	PI3Kδ @ 1 μM (% Inh) (PI3Kδ)	IC50 (BTK)	IC50 (PI3Kδ)
Nc1nccn2c(C3Cc4ccccc4C3)nc(-c3cc(O)c(F)c(F)c3)c12 [compound 140, 5-[8-amino-3-(2,3-dihydro-1H-inden-2-yl)imidazo[1,5-a]pyrazin-1-yl]-2,3-difluorophenol]	83.98 % Inh	96.04 % Inh	31.54 % Inh	79.18 % Inh				
Nc1ncnc2c1c(-c1ccc3[nH]cnc3c1)nn2C1Cc2ccccc2C1 [Compound No. 47, 3-(1H-1,3-benzodiazol-5-yl)-1-(2,3-dihydro-1H-inden-2-yl)-1H-pyrazolo[3,4-d]pyrimidin-4-amine]		9.61 % Inh		78.41 % Inh	48.47 % Inh	100.0 % Inh		
Nc1ncnc2c1c(-c1ccc(F)c(F)c1)nn2C1Cc2ccccc2C1 [Compound No. 89, 3-(3,4-difluorophenyl)-1-(2,3-dihydro-1H-inden-2-yl)-1H-pyrazolo[3,4-d]pyrimidin-4-amine]	8.84 % Inh	30.58 % Inh	0.76 % Inh	17.95 % Inh				
Nc1ncnc2c1c(-c1ccc(F)c(O)c1)nn2C1CCc2ccccc21 (centres unmarked) [compound 10, 5-(4-amino-1-indan-1-yl-pyrazolo[3,4-d]pyrimidin-3-yl)-2-fluoro-phenol]		58.79 % Inh		22.39 % Inh				
Nc1ncnc2c1c(-c1cc(O)cc(F)c1)nn2C1CCc2ccccc21 (centres unmarked) [compound 30, 3-(4-amino-1-indan-1-yl-pyrazolo[3,4-d]pyrimidin-3-yl)-5-fluoro-phenol]		35.16 % Inh		64.19 % Inh			0.217 µM	0.013 µM
Nc1cc(-c2nn(C3Cc4ccccc4C3)c3ncnc(N)c23)ccc1F [Compound No. 87, 3-(3-amino-4-fluorophenyl)-1-(2,3-dihydro-1H-inden-2-yl)-1H-pyrazolo[3,4-d]pyrimidin-4-amine]	34.28 % Inh	78.95 % Inh	13.47 % Inh	8.16 % Inh				
Nc1ncnc2c1c(-c1cc(O)cc(OC(F)(F)F)c1)nn2C1Cc2ccccc2C1 [Compound No. 72, 3-[4-amino-1-(2,3-dihydro-1H-inden-2-yl)-1H-pyrazolo[3,4-d]pyrimidin-3-yl]-5-(trifluoromethoxy)phenol]		6.81 % Inh		55.46 % Inh	7.63 % Inh	85.89 % Inh		
Cn1ncc2c(-c3nn(C4Cc5ccccc5C4)c4ncnc(N)c34)cccc21 [Compound No. 98, 1-(2,3-dihydro-1H-inden-2-yl)-3-(1-methyl-1H-indazol-4-yl)-1H-pyrazolo[3,4-d]pyrimidin-4-amine]	8.24 % Inh	12.62 % Inh	14.09 % Inh	19.14 % Inh				
Nc1ncnc2c1c(-c1ccc(C(F)(F)F)c(OCc3ccccc3)c1)nn2C1Cc2ccccc2C1 [Compound No. 43, 3-[3-(benzyloxy)-4-(trifluoromethyl)phenyl]-1-(2,3-dihydro-1H-inden-2-yl)-1H-pyrazolo[3,4-d]pyrimidin-4-amine]		3.54 % Inh		11.31 % Inh	−0.8 % Inh	11.07 % Inh		
Nc1ccc(-c2nn(C3Cc4ccccc4C3)c3ncnc(N)c23)cn1 [Compound No. 96, 5-[4-amino-1-(2,3-dihydro-1H-inden-2-yl)-1H-pyrazolo[3,4-d]pyrimidin-3-yl]pyridin-2-amine]	7.68 % Inh	12.19 % Inh	32.92 % Inh	40.18 % Inh				
Nc1ncnc2c1c(-c1ccc(Br)c(O)c1)nn2C1CCc2ccccc21 (centres unmarked) [compound 36, 5-[4-amino-1-(2,3-dihydro-1H-inden-1-yl)-1H-pyrazolo[3,4-d]pyrimidin-3-yl]-2-bromophenol]		43.28 % Inh		56.42 % Inh				
COc1cc(-c2nn(C3Cc4ccccc4C3)c3ncnc(N)c23)ccc1N [Compound No. 66, 3-(4-amino-3-methoxyphenyl)-1-(2,3-dihydro-1H-inden-2-yl)-1H-pyrazolo[3,4-d]pyrimidin-4-amine]		69.93 % Inh		17.08 % Inh	95.07 % Inh	53.69 % Inh	0.0253 µM	0.461 µM
Nc1ncnc2c1c(-c1cc(F)c(F)c(F)c1)nn2C1Cc2ccccc2C1 [Compound No. 86, 1-(2,3-dihydro-1H-inden-2-yl)-3-(3,4,5-trifluorophenyl)-1H-pyrazolo[3,4-d]pyrimidin-4-amine]	8.08 % Inh	21.34 % Inh	17.21 % Inh	20.84 % Inh				
COc1cc(-c2nn(C3Cc4ccccc4C3)c3ncnc(N)c23)cc(C(F)(F)F)c1F [Compound No. 92, 1-(2,3-dihydro-1H-inden-2-yl)-3-[4-fluoro-3-methoxy-5-(trifluoromethyl)phenyl]-1H-pyrazolo[3,4-d]pyrimidin-4-amine]	1.24 % Inh	3.3 % Inh	11.71 % Inh	9.31 % Inh				
NC(=O)/C=C/c1nn(C2Cc3ccccc3C2)c2ncnc(N)c12 [Compound No. 58, (2E)-3-[4-amino-1-(2,3-dihydro-1H-inden-2-yl)-1H-pyrazolo[3,4-d]pyrimidin-3-yl]prop-2-enamide]		18.0 % Inh		33.15 % Inh	43.79 % Inh	44.88 % Inh		
C=CC(=O)N1CC(n2nc(-c3cnc(OC)c(F)c3)c3c(N)ncnc32)Cc2cc(C)ccc21 (centres unmarked) [compound 32, 1-(3-(4-amino-3-(5-fluoro-6-methoxypyridin-3-yl)-1H-pyrazolo[3,4-d]pyrimidin-1-yl)-6-methyl-3,4-dihydroquinolin-1 (2H)-yl)prop-2-en-1-one]		13.50 % Inh		11.3 % Inh			0.877 µM	1.49 µM
Nc1ncnc2c1c(-c1ccccc1CO)nn2C1Cc2ccccc2C1 [Compound No. 53, {2-[4-amino-1-(2,3-dihydro-1H-inden-2-yl)-1H-pyrazolo[3,4-d]pyrimidin-3-yl]phenyl}methanol]		30.42 % Inh		30.15 % Inh	76.1 % Inh	81.32 % Inh	0.575 µM	0.645 µM
Cc1ccc(-c2nn(C3Cc4ccccc4C3)c3ncnc(N)c23)cc1N [Compound No. 46, 3-(3-amino-4-methylphenyl)-1-(2,3-dihydro-1H-inden-2-yl)-1H-pyrazolo[3,4-d]pyrimidin-4-amine]		85.71 % Inh		30.55 % Inh	96.3 % Inh	67.34 % Inh	0.0212 µM	1.29 µM
